# Assays:
# in vivo = details: female, CD-1, mouse, 30 mg/kg; for half-life: Plasma Half-life; for Vd: Plasma Vd
# Procedure: The P. aeruginosa strain UNT034-1 (ATCC 27853) was used for infection studies. Female CD-1 mice (6–8 weeks old; 22 ± 2 g) were obtained from Envigo Laboratories (Indianapolis, IN, USA). All procedures were conducted in accordance with protocols approved by the University of North Texas Health Science Center (UNTHSC) Institutional Animal Care and Use Committee (protocol IACUC-2021-0003). Neutropenia was induced by intraperitoneal (i.p.) injection of cyclophosphamide (Cytoxan) at 150 mg/kg on day 4 and 100 mg/kg on day 1 before infection. Mice were anesthetized by i.p. injection of ketamine (40 mg/kg) and xylazine (6 mg/kg) and intranasally inoculated with 0.05 mL of the prepared P. aeruginosa suspension by placing droplets onto the nares and allowing inhalation. Following inoculation, mice were returned to cages for recovery. […] At predetermined time points (0.083, 0.25, 0.5, 1, 2, 4, 8, and 24 h), groups of three mice were euthanized by CO2 asphyxiation. Blood was collected by cardiac puncture into tubes containing EDTA or serum separator gel, centrifuged at 4 °C, and plasma or serum was harvested within 30 min of collection. Bronchoalveolar lavage fluid (BALF) was collected to determine drug concentrations at the site of infection. Briefly, 1.2 mL of sterile 0.9% NaCl was instilled into the lungs via the trachea and gently withdrawn. The epithelial lining fluid (ELF) dilution factor was determined by the blood urea nitrogen (BUN) method. Plasma and BALF samples were stored at −80 °C until analysis. Drug concentrations were quantified by LC-MS/MS using a Surveyor HPLC system coupled to a TSQ Quantum Ultra triple-quadrupole mass spectrometer (Thermo Scientific). Separation was achieved on a Phenomenex Kinetex PFP column (50 × 2.1 mm, 2.6 µm) with a mobile phase gradient of water (0.1% formic acid, A) and acetonitrile (0.1% formic acid, B) at 0.5 mL/min. The gradient proceeded from 10% to 90% B over 4 min, held for 1 min, and re-equilibrated to initial conditions. The column oven was maintained at 30 °C. […] Samples (50 µL plasma or BALF) were spiked with 10 µL of internal standard in methanol, precipitated with 150 µL acetonitrile, vortexed, sonicated for 10 min, and centrifuged at 14,500 rpm for 5 min. A 100 µL aliquot of the supernatant was transferred to autosampler vials, and 10 µL was injected for analysis. Concentration-time data were analyzed using noncompartmental methods (PK Solutions v2.0; Summit Research Services, Montrose, CO, USA). Parameters including area under the concentration-time curve (AUC0-t), maximum concentration (Cmax), time to Cmax (Tmax), apparent volume of distribution (Vd), systemic clearance (CL), and terminal half-life (t½) were calculated. Data are presented as means ± standard deviation (SD) for three animals per time point.
# Cav1.2 = biological target: T1, Cav1.2 (Homo sapiens, UniProt Q13936); assay: QPatch ion channel assay; assay type: cell-based; details: read-out: % Inhibition (n = 2), Cav1.2
# T1 construct: host or cells: HEK293
# Source text: (§1) The automated whole-cell patch-clamp (Qpatch HT) technique is used to record depolarizing currents, hNav1.5 and hCav1.2, and repolarizing potassium currents, hERG. Cells Recombinant HEK-293 cells stably transfected with human Nav1.5 cDNA, Recombinant HEK293 cell line expressing the human Cav1.2 (L-type voltage-gated calcium channel, hCav1.2 α1C/β2a/α2δ1, and recombinant CHO-K1 cells stably transfected with human hERG cDNA are used separately in each of these assays. The cells are harvested by Accutase and maintained in Serum-Free Medium at room temperature before assay. On the instrument, the cells are pipetted into each well of a 48-well plate in external solution. Test concentration stock solution is prepared in DMSO at 300× the final assay concentrations, and stored at −20 °C until the day of assay. On the day of the assay, an aliquot of the stock solution is thawed and diluted into external solution to make final test concentrations. A final concentration of 0.33% DMSO is maintained for each concentration of the assay compounds and controls. The assay is conducted at room temperature. Recording conditions hNav1.5 Peak current Onset and steady state block of peak Nav1.5 current are measured using a pulse pattern, repeated every 5 sec, consisting of a hyperpolarizing pulse to −120 mV for a 200 ms duration, depolarization to −15 mV amplitude for a 40 ms duration, followed by a step to 40 mV for 200 ms and finally a 100 ms ramp (1.2 V/s) to a holding potential of −80 mV. hCav1.2 currents are evoked following a 100 ms pulse to −60 mV followed by a 50 ms pulse to +10 mV before returning to the holding potential of −90 mV. This paradigm is delivered three times once every 20 s. Cells are held at −90 mV with a 5 s pulse to −60 mV every 20 s for a total of 120 s between each set of three pulses. The cell is held at −80 mV. Then the cell is depolarized to +40 mV for 500 ms and then to −80 mV over a 100 ms ramp to elicit the hERG tail current. This paradigm is delivered once every 8 s. The Extracellular Solution (control) is applied first and the cell is stabilized in the solution for 5 min. Then the test compound is applied from low to high concentrations sequentially on the same cell. The cells are incubated with each test concentration for 5 min. Reference compounds Tetracaine Nifedipine and E-4031 are tested concurrently for hNav1.5, hCav1.2 and hERG, respectively, at multiple concentrations to obtain an IC50 value.
# (§2) The amplitude of the sodium current is calculated by measuring the difference between the peak inward current on stepping to −10 mV (i.e., peak current) and the leak current. The sodium current is assessed in vehicle control conditions and then at the end of each five (5)-minute compound application. Individual cell results are normalized to the vehicle control amplitude and the mean ± SEM is calculated for each compound concentration. These values are then plotted and estimated IC50 curve fits are calculated. The maximum inward current elicited on stepping to +10 mV for 50msec from −60 mV is measured. Compound interaction is assessed by dividing post-current amplitude (at the end of each three (3)-minute compound application) by the vehicle control amplitude and the mean calculated for each compound concentration. These values are then plotted and estimated IC50 curve fits are calculated. The percent inhibition of the hERG channel is calculated by comparing the peak (hERG tail) current amplitude before and after application of the compound (the current difference is normalized to vehicle control values).
# Nav1.5 (peak current) = biological target: T2, Nav1.5 (peak current) (Homo sapiens, UniProt Q14524); assay: QPatch ion channel assay; assay type: cell-based; details: read-out: % Inhibition (n = 2), Nav1.5
# T2 construct: host or cells: HEK-293
# Source text: as §1, §2
# hERG = biological target: T3, hERG (Homo sapiens, UniProt Q12809); assay: QPatch ion channel assay; assay type: cell-based; details: CHO-K1 cells stably transfected with human hERG, read-out: % Inhibition (n = 2), hERG
# T3 construct: host or cells: CHO-K1
# Source text: as §1, §2
# T3 sequence (Q12809 whole entry): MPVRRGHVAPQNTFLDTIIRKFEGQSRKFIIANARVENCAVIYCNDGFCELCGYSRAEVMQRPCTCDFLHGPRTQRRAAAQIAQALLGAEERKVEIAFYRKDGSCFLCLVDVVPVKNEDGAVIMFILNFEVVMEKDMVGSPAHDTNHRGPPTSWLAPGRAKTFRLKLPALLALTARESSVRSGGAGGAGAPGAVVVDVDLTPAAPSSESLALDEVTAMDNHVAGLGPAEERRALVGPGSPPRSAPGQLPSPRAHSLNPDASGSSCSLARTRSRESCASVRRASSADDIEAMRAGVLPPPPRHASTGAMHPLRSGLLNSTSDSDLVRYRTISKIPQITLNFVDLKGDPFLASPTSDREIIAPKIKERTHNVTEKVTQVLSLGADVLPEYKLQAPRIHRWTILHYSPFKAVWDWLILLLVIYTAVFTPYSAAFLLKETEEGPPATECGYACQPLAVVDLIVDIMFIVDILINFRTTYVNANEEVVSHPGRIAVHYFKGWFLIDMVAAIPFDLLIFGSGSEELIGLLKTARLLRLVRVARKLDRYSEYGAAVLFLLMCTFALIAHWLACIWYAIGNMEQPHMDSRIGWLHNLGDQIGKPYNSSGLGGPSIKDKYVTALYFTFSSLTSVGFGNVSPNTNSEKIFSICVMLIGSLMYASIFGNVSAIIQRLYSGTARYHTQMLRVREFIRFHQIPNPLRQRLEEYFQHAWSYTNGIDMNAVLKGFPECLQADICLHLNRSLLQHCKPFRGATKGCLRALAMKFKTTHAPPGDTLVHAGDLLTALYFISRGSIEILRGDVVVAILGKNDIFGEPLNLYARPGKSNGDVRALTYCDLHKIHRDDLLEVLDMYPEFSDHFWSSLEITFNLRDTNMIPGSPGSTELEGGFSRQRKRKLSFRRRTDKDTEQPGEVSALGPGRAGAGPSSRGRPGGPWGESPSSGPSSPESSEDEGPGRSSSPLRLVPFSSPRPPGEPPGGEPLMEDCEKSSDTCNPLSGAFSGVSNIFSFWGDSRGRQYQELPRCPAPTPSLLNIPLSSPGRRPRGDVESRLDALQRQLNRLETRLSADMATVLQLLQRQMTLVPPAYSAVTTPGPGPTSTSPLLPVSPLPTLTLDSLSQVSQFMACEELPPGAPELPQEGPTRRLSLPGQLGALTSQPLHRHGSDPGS
# T2 sequence (Q14524 whole entry): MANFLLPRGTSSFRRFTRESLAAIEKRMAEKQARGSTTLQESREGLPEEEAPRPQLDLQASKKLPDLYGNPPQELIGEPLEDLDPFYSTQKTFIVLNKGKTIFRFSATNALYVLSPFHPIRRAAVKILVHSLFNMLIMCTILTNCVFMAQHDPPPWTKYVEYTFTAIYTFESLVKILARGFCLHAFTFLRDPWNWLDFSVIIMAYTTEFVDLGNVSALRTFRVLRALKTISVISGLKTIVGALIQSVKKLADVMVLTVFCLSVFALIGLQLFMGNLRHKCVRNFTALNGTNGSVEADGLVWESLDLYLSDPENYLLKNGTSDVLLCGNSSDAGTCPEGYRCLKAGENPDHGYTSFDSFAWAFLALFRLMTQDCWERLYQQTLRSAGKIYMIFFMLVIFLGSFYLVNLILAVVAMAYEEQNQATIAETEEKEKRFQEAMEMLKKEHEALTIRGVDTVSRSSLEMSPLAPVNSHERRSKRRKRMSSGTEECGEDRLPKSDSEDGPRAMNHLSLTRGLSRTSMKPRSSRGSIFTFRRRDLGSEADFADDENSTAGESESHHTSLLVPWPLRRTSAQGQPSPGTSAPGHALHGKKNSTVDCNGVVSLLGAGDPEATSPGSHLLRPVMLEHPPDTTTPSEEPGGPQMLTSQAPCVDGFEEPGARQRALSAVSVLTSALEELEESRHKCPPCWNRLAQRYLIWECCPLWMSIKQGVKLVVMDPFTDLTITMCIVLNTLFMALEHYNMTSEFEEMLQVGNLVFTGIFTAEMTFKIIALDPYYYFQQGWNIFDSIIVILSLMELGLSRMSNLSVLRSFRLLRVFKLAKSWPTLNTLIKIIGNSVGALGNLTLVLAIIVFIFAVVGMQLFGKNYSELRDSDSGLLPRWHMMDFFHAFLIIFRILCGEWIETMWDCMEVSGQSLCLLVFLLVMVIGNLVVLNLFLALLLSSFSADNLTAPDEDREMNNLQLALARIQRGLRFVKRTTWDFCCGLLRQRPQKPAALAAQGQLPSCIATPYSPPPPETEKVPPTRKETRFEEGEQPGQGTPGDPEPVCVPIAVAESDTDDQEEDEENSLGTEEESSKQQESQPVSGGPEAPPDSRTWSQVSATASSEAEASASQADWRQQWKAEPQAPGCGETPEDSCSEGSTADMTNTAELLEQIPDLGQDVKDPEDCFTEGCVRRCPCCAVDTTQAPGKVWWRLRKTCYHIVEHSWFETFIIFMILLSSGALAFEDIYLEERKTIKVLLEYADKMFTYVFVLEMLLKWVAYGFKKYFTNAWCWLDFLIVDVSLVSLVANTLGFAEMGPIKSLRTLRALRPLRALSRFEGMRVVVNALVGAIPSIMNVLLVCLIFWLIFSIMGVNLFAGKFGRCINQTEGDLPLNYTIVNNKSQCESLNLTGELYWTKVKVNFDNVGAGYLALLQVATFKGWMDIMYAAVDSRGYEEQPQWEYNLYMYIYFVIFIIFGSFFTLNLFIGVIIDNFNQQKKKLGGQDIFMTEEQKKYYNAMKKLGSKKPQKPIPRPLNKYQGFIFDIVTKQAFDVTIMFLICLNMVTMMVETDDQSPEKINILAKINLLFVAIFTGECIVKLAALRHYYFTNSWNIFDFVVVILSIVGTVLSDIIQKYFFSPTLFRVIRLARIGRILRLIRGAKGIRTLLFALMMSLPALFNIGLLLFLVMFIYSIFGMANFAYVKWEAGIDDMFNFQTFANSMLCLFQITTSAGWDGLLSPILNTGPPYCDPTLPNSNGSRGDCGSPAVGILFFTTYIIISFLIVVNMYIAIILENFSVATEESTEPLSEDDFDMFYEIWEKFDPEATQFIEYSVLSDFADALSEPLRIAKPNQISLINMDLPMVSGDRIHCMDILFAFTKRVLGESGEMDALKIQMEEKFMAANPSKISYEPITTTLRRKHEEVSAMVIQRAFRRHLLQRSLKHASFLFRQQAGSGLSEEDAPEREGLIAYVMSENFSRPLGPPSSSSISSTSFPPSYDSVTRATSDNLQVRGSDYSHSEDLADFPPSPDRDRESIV
smiles,measurement,setting,value
"C[C@H]1COc2c(N3CCN(C)CC3)c(F)cc3c(=O)c(C(=O)O)cn1c23 [Levofloxacin, levofloxacin]",Cmax,in vivo; BALF Cmax,2000 ng/mL
same,Tmax,in vivo; BALF Tmax,15 min
same,AUC(0-t),in vivo; Plasma AUC 0-t,32900 ng·h/mL
same,Cmax,in vivo; Plasma Cmax,24100 ng/mL
same,half-life,in vivo,88.8 min
same,Tmax,in vivo; Plasma Tmax,15 min
same,Vd,in vivo,1.89 L/kg
same,AUC(0-t),"in vivo; sc, BALF AUC 0-t",3900 ng·h/mL
NC[C@@H]1CN[C@H](CNC(=O)c2cc3ccc(-c4ccc(F)cc4)cc3[nH]2)C1 [TXA09155],"inhibition at 3 min, 10 µM",Cav1.2,12.7%
same,"inhibition at 5 min, 10 µM",Nav1.5 (peak current),0.1%
same,"inhibition at 5 min, 10 µM",hERG,9.2%
"NCC(F)C[C@@H](N)CNC(=O)c1cc2ccc(-c3ccc(F)cc3)cc2[nH]1 (stereo partly drawn) [TXA11114, N-((2R)-2,5-diamino-4-fluoropentyl)-6-(4-fluorophenyl)-1H-indole-2-carboxamide]","inhibition at 3 min, 10 µM",Cav1.2,0.2%
same,"inhibition at 5 min, 10 µM",Nav1.5 (peak current),-3.7%
same,"inhibition at 5 min, 10 µM",hERG,10.9%
same,AUC(0-t),in vivo; BALF AUC 0-t,13200 ng·h/mL
same,Tmax,in vivo; BALF Tmax,240 min
same,AUC(0-t),in vivo; Plasma AUC 0-t,30700 ng·h/mL
same,Cmax,in vivo; Plasma Cmax,13000 ng/mL
same,half-life,in vivo,110 min
same,Tmax,in vivo; Plasma Tmax,4.98 min
same,Vd,in vivo,2.5 L/kg
